Measurements published in patent US20260022142A1, “MACROCYCLIC IMMUNOMODULATORS” (Bristol-Myers Squibb Company, priority 2022, published 2026).
Bridge positions count the residues as written; N and C are the ends. Square brackets hold non-standard residues; d marks the D form. Peptide text beside a SMILES is read from it. * marks the point of attachment. ξ: configuration not given here. Phe(3-CF3) = N[C@@H](Cc1cccc(C(F)(F)F)c1)C(=O)O; Phe(4-COOH) = N[C@@H](Cc1ccc(C(=O)O)cc1)C(=O)O; Phe(2-CF3) = N[C@@H](Cc1ccccc1C(F)(F)F)C(=O)O; Bip = N[C@@H](Cc1ccc(-c2ccccc2)cc1)C(=O)O; NH(CH2)14COOH = O=C(O)CCCCCCCCCCCCCCN*; Phe(3-Me) = Cc1cccc(C[C@H](N)C(=O)O)c1; Val(3-OH) = CC(C)(O)[C@H](N)C(=O)O; hArg = N=C(N)NCCCC[C@H](N)C(=O)O; 4Pal = N[C@@H](Cc1ccncc1)C(=O)O; Cha = N[C@@H](CC1CCCCC1)C(=O)O; Thr(3ξ) = CC(O)[C@H](N)C(=O)O; 12Ado = NCCCCCCCCCCCC(=O)O; hSer = N[C@@H](CCO)C(=O)O; Carboxymethyl = O=C(O)C*; Orn = NCCC[C@H](N)C(=O)O; Aun = NCCCCCCCCCCC(=O)O; Dab = NCC[C@H](N)C(=O)O; Dap = NC[C@H](N)C(=O)O; AEEA = NCCOCCOCC(=O)O

Molecular target: T1, PD-1/PD-L1 interaction (PE-labeled human PD-L1-Ig binding to Jurkat cell line over-expressing human PD-1) (Homo sapiens, UniProt Q15116)
T1 construct: expressed in transfected cells; host or cells: Jurkat
T1 sequence (Q15116 25-288): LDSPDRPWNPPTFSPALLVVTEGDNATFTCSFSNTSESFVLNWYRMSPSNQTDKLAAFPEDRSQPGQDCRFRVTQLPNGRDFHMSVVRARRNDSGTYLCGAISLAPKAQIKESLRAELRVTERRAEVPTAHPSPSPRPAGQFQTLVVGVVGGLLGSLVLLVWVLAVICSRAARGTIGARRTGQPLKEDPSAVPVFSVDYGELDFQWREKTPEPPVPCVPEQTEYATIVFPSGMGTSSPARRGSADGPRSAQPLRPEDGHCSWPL
Test: Jurkat-PD-1 Cell Binding High-Content Screening Assay (CBA)
Type: cell-based
Conditions: Jurkat cell line over-expressing human PD-1; PE-labeled PD-L1-Ig 20 nM final; read-out: Jurkat hPD1-PDL1 IC50
Method in brief: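 Jurkat-hPD-1 cells, DMEM/10% FCS; cpd 2 h 37° C; PE-PD-L1-Ig 20 nM final, 1 h; 4% PFA fix + Hoechst 33342, 3× dPBS wash; high-content imaging read-out.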

IC50 | SMILES
22.7 nM | Cc1cccc(C[C@@H]2NC(=O)[C@H](CC(=O)O)NC(=O)[C@H](Cc3ccc(OCC(=O)O)cc3)NC(=O)[C@H](CCCNC(=N)N)NC(=O)CSC[C@@H](C(=O)N[C@@H](CCN)C(=O)NCCCCCCCCCCC(=O)O)NC(=O)[C@H](CO)NC(=O)[C@H](C(C)C)NC(=O)[C@H](CC3CCCCC3)NC(=O)[C@H](CCN)NC(=O)[C@@H](CC(C)C)NC(=O)[C@H](CCCN)NC(=O)[C@H](Cc3ccc(OCC(=O)O)cc3)NC(=O)[C@H](Cc3ccc(-c4ccccc4)cc3)NC(=O)[C@H](Cc3ccc(O)cc3)NC2=O)c1 [Compound 2082] ({CH2CO}-RY(Carboxymethyl)D[Phe(3-Me)]Y[Bip]Y(Carboxymethyl)[Orn][dL][Dab][Cha]VSC[Dab][Aun]-OH; thioether N-14)
11.6 nM | Cc1cccc(C[C@@H]2NC(=O)[C@H](CC(=O)O)NC(=O)[C@H](Cc3ccc(OCC(=O)O)cc3)NC(=O)[C@H](CCCNC(=N)N)NC(=O)CSC[C@@H](C(=O)N[C@@H](CCN)C(=O)NCCCCCCCCCCC(=O)O)NC(=O)[C@H](CCC(N)=O)NC(=O)[C@H](C(C)C)NC(=O)[C@H](CC3CCCCC3)NC(=O)[C@H](CCN)NC(=O)[C@@H](CC(C)C)NC(=O)[C@H](CCCN)NC(=O)[C@H](C(C)(C)O)NC(=O)[C@H](Cc3ccc(-c4ccccc4)cc3)NC(=O)[C@H](Cc3ccc(OCC(=O)O)cc3)NC2=O)c1 [Compound 2140] ({CH2CO}-RY(Carboxymethyl)D[Phe(3-Me)]Y(Carboxymethyl)[Bip][Val(3-OH)][Orn][dL][Dab][Cha]VQC[Dab][Aun]-OH; thioether N-14)
10.1 nM | Cc1cccc(C[C@@H]2NC(=O)[C@H](CC(=O)O)NC(=O)[C@H](Cc3ccc(OCC(=O)O)cc3)NC(=O)[C@H](CCCCNC(=N)N)NC(=O)CSC[C@@H](C(=O)NCC(=O)NCCOCCOCC(=O)N[C@@H](CCC(=O)O)C(=O)NCCCCCCCCCCCC(=O)O)NC(=O)[C@H](CO)NC(=O)[C@H](C(C)C)NC(=O)[C@H](CC3CCCCC3)NC(=O)[C@H](CCN)NC(=O)[C@@H](CC(C)C)NC(=O)[C@H](CCCN)NC(=O)[C@H](C(C)C)NC(=O)[C@H](Cc3ccc(-c4ccccc4)cc3)NC(=O)[C@H](C(C)C)NC2=O)c1 [Compound 3184] ({CH2CO}-[hArg]Y(Carboxymethyl)D[Phe(3-Me)]V[Bip]V[Orn][dL][Dab][Cha]VSCG[AEEA]E[12Ado]-OH; thioether N-14)
38.3 nM | Cc1cccc(C[C@@H]2NC(=O)[C@H](CC(=O)O)NC(=O)[C@H](Cc3ccc(OCC(=O)O)cc3)NC(=O)[C@H](CCCNC(=N)N)NC(=O)CSC[C@@H](C(=O)N[C@@H](CCN)C(=O)NCCCCCCCCCCC(=O)O)NC(=O)[C@H](CCC(=O)O)NC(=O)[C@H](C(C)C)NC(=O)[C@H](CC3CCCCC3)NC(=O)[C@H](CCN)NC(=O)[C@@H](CC(C)C)NC(=O)[C@H](CCCN)NC(=O)[C@H](Cc3ccc(O)cc3)NC(=O)[C@H](Cc3ccc(-c4ccccc4)cc3)NC(=O)[C@H](CC(C)C)NC2=O)c1 [Compound 3342] ({CH2CO}-RY(Carboxymethyl)D[Phe(3-Me)]L[Bip]Y[Orn][dL][Dab][Cha]VEC[Dab][Aun]-OH; thioether N-14)
6.6 nM | Cc1cccc(C[C@@H]2NC(=O)[C@H](CC(=O)O)NC(=O)[C@H](Cc3ccc(OCC(=O)O)cc3)NC(=O)[C@H](CCCNC(=N)N)NC(=O)CSC[C@@H](C(=O)N[C@@H](CCN)C(=O)NCCCCCCCCCCC(=O)O)NC(=O)[C@H](CCO)NC(=O)[C@H](C(C)C)NC(=O)[C@H](CC3CCCCC3)NC(=O)[C@H](CCN)NC(=O)[C@@H](CC(C)C)NC(=O)[C@H](CCCN)NC(=O)[C@H](Cc3ccc(OCC(=O)O)cc3)NC(=O)[C@H](Cc3ccc(-c4ccccc4)cc3)NC(=O)[C@H](Cc3ccc(OCC(=O)O)cc3)NC2=O)c1 [Compound 2094] ({CH2CO}-RY(Carboxymethyl)D[Phe(3-Me)]Y(Carboxymethyl)[Bip]Y(Carboxymethyl)[Orn][dL][Dab][Cha]V[hSer]C[Dab][Aun]-OH; thioether N-14)

The remaining lines, values behind:

SMILES | IC50
Cc1cccc(C[C@@H]2NC(=O)[C@H](CC(=O)O)NC(=O)[C@H](Cc3ccc(OCC(=O)O)cc3)NC(=O)[C@H](CN)NC(=O)CSC[C@@H](C(=O)N[C@@H](CCN)C(=O)NCCCCCCCCCCC(=O)O)NC(=O)[C@H](Cc3ccncc3)NC(=O)[C@H](C(C)C)NC(=O)[C@H](CC3CCCCC3)NC(=O)[C@H](CCN)NC(=O)[C@@H](CC(C)C)NC(=O)[C@H](CCCN)NC(=O)[C@H](Cc3ccc(O)cc3)NC(=O)[C@H](Cc3ccc(-c4ccccc4)cc3)NC(=O)[C@H](C(C)C)NC2=O)c1 [Compound 2768] ({CH2CO}-[Dap]Y(Carboxymethyl)D[Phe(3-Me)]V[Bip]Y[Orn][dL][Dab][Cha]V[4Pal]C[Dab][Aun]-OH; thioether N-14) | 55.2 nM
Cc1cccc(C[C@@H]2NC(=O)[C@H](CC(=O)O)NC(=O)[C@H](Cc3ccc(OCC(=O)O)cc3)NC(=O)[C@H](CN)NC(=O)CSC[C@@H](C(=O)N[C@@H](CCN)C(=O)NCCOCCOCC(=O)NCCCCCCCCCCC(=O)O)NC(=O)[C@H](CCC(=O)O)NC(=O)[C@H](C(C)C)NC(=O)[C@H](Cc3ccccc3C(F)(F)F)NC(=O)[C@H](CCN)NC(=O)[C@@H](CC(C)C)NC(=O)[C@H](CCCN)NC(=O)[C@H](Cc3ccc(OCC(=O)O)cc3)NC(=O)[C@H](Cc3ccc(-c4ccccc4)cc3)NC(=O)[C@H](Cc3ccc(C(=O)O)cc3)NC2=O)c1 [Compound 1267] ({CH2CO}-[Dap]Y(Carboxymethyl)D[Phe(3-Me)][Phe(4-COOH)][Bip]Y(Carboxymethyl)[Orn][dL][Dab][Phe(2-CF3)]VEC[Dab][AEEA][Aun]-OH; thioether N-14) | 15.2 nM
CC(C)C[C@H]1NC(=O)[C@H](CCCN)NC(=O)[C@H](Cc2ccc(C(=O)O)cc2)NC(=O)[C@H](Cc2ccc(-c3ccccc3)cc2)NC(=O)[C@H](Cc2ccc(C(=O)O)cc2)NC(=O)[C@H](Cc2cccc(C(F)(F)F)c2)NC(=O)[C@H](CC(=O)O)NC(=O)[C@H](Cc2ccc(OCC(=O)O)cc2)NC(=O)[C@H](Cc2ccc(OCC(=O)O)cc2)NC(=O)CSC[C@@H](C(=O)N[C@@H](CCN)C(=O)NCCCCCCCCCCCCCCC(=O)O)NC(=O)[C@H](CC(=O)O)NC(=O)[C@H](C(C)C)NC(=O)[C@H](CC2CCCCC2)NC(=O)[C@H](CCN)NC1=O [Compound 3848] ({CH2CO}-Y(Carboxymethyl)Y(Carboxymethyl)D[Phe(3-CF3)][Phe(4-COOH)][Bip][Phe(4-COOH)][Orn][dL][Dab][Cha]VDC[Dab]-{NH(CH2)14COOH}; thioether N-14) | 317 nM
CC(C)C[C@H]1NC(=O)[C@H](CCCN)NC(=O)[C@H](Cc2ccc(OCC(=O)O)cc2)NC(=O)[C@H](Cc2ccc(-c3ccccc3)cc2)NC(=O)[C@H](Cc2ccc(OCC(=O)O)cc2)NC(=O)[C@H](Cc2cccc(C(F)(F)F)c2)NC(=O)[C@H](CC(=O)O)NC(=O)[C@H](Cc2ccc(OCC(=O)O)cc2)NC(=O)[C@H](C)NC(=O)CSC[C@@H](C(=O)N[C@@H](CCN)C(=O)NCCCCCCCCCCCCCCC(=O)O)NC(=O)[C@H](Cc2cnc[nH]2)NC(=O)[C@H](C(C)(C)O)NC(=O)[C@H](CC2CCCCC2)NC(=O)[C@H](CCN)NC1=O [Compound 3852] ({CH2CO}-AY(Carboxymethyl)D[Phe(3-CF3)]Y(Carboxymethyl)[Bip]Y(Carboxymethyl)[Orn][dL][Dab][Cha][Val(3-OH)]HC[Dab]-{NH(CH2)14COOH}; thioether N-14) | 142 nM
Cc1cccc(C[C@@H]2NC(=O)[C@H](CC(=O)O)NC(=O)[C@H](Cc3ccc(C(=O)O)cc3)NC(=O)[C@H](C(C)O)NC(=O)CSC[C@@H](C(=O)N[C@@H](CCN)C(=O)NCCOCCOCC(=O)NCCOCCOCC(=O)NCCCCCCCCCCC(=O)O)NC(=O)[C@H](CO)NC(=O)[C@H](C(C)O)NC(=O)[C@H](CC3CCCCC3)NC(=O)[C@H](CCN)NC(=O)[C@@H](CC(C)C)NC(=O)[C@H](CCCN)NC(=O)[C@H](Cc3ccc(C(=O)O)cc3)NC(=O)[C@H](Cc3ccc(-c4ccccc4)cc3)NC(=O)[C@H](Cc3ccc(C(=O)O)cc3)NC2=O)c1 (stereo partly drawn) [Compound 3775] ({CH2CO}-[Thr(3ξ)][Phe(4-COOH)]D[Phe(3-Me)][Phe(4-COOH)][Bip][Phe(4-COOH)][Orn][dL][Dab][Cha][Thr(3ξ)]SC[Dab][AEEA][AEEA][Aun]-OH; thioether N-14) | 5.8 nM
Cc1cccc(C[C@@H]2NC(=O)[C@H](CC(=O)O)NC(=O)[C@H](Cc3ccc(OCC(=O)O)cc3)NC(=O)[C@H]([C@@H](C)O)NC(=O)CSC[C@@H](C(=O)N[C@@H](CCN)C(=O)NCCCCCCCCCCC(=O)O)NC(=O)[C@H]([C@@H](C)O)NC(=O)[C@H](C(C)C)NC(=O)[C@H](CC3CCCCC3)NC(=O)[C@H](CCN)NC(=O)[C@@H](CC(C)C)NC(=O)[C@H](CCCN)NC(=O)[C@H](Cc3ccc(O)cc3)NC(=O)[C@H](Cc3ccc(-c4ccccc4)cc3)NC(=O)[C@H](Cc3ccc(OCC(=O)O)cc3)NC2=O)c1 [Compound 2092] ({CH2CO}-TY(Carboxymethyl)D[Phe(3-Me)]Y(Carboxymethyl)[Bip]Y[Orn][dL][Dab][Cha]VTC[Dab][Aun]-OH; thioether N-14) | 25.1 nM
CC(C)C[C@@H]1NC(=O)[C@H](Cc2c[nH]c3ccccc23)NC(=O)[C@H](CC(=O)O)NC(=O)[C@H](Cc2ccc(C(=O)O)cc2)NC(=O)[C@H](Cc2ccc(OCC(=O)O)cc2)NC(=O)CSC[C@@H](C(=O)NCCOCCOCC(=O)NCCCCCCCCCCC(=O)O)NC(=O)[C@H](CCN)NC(=O)[C@H](C(C)C)NC(=O)[C@H](CC2CCCCC2)NC(=O)[C@H](CCN)NC(=O)[C@@H](CC(C)C)NC(=O)[C@H](CCCN)NC(=O)[C@H](Cc2ccc(O)cc2)NC(=O)[C@H](Cc2ccc(-c3ccccc3)cc2)NC1=O [Compound 1239] ({CH2CO}-Y(Carboxymethyl)[Phe(4-COOH)]DWL[Bip]Y[Orn][dL][Dab][Cha]V[Dab]C[AEEA][Aun]-OH; thioether N-14) | 30.2 nM
